Test system: Serpula himantioides strain ATCC 64894
Assay: EN 113 wood block decay test, Serpula himantioides, 16 weeks
Assay type: cell-based
Description: Five replicates were made per each treatment.
As shown in the above tables, the copper composition contains about 9% by weight copper, while both of the azole compositions contain about 10% by weight azole. The DQA cation was applied to the wood as a solution of 50 weight percent didecyldimethyl ammonium carbonate (DDACarbonate).
The wood samples were exposed for 16 weeks.

## didecyldimethyl ammonium carbonate [DDACarbonate]
Cu retention 0, DDACarbonate retention 0.25 Kg/m^3, 16 weeks
  16 weeks of exposure Average weight loss % of untreated weight loss: 84%
Cu retention 0, DDACarbonate retention 0.5 Kg/m^3, 16 weeks
  16 weeks of exposure Average weight loss % of untreated weight loss: 67%
Summary of the decay tests, 16 weeks
  protection of wood against decay by Serpula himantioides (in words): relatively little protection

— US9023483B2, “Wood preservative compositions useful for treating copper-tolerant fungi” (Arch Timber Protection Limited, priority 2010, dated 2015)
